According to patent US20240392249A1, “HUMAN HEPATOCYTE CULTURE MEDIUM AND CONDITIONED MEDIUM OF IN VITRO CULTURED HUMAN HEPATOCYTES AND USES THEREOF” (UNIVERSITY OF SOUTHERN CALIFORNIA, priority 2021, published 2024):

Legend:
CYP3A4 [1] = test: CYP3A4 expression and inducibility in HH (immunoblotting); type: cell-based, human; details: HH cultured with DMSO2, 7-day treatment
Excerpt: Then, and total RNA and cell lysates were subjected to immunoblotting analysis (left) and qPCR analysis (right) to determine the inducibility of indicated molecules. Graph bars represent mean±SD; *, ** and *** indicate p<0.05 and p<0.01 and p<0.001 by one-way ANOVA.

CYP2E1 [2] = target: CYP2E1 (Homo sapiens, UniProt P05181); test: CYP2E1 activity, Vivid CYP2E1 Blue Screening Kit; details: in the presence of the organic compound
Description: (§1) Then, cells were used for the assessment of CYP3A4 (left), and CYP2A9 (middle) activity in the presence of organic compounds (DMSO or DMSO2) using P450-Glo™ Assays (Promega). For the assessment of CYP2E1 activity (right) was assessed using Vivid™ CYP2E1 Blue Screening Kit (Thermo Fisher). Graph bars represent mean±SD; *, ** and *** indicate p<0.05 and p<0.01 and p<0.001 by one-way ANOVA; n.s, not significant; n.d., not detected.
For the assessment of CYP2E1 activity (right) was assessed using VividTM CYP2E1 Blue Screening Kit (Thermo Fisher).

CYP3A4 [3] = target: T1, CYP3A4 (Homo sapiens, UniProt P08684); test: CYP3A4 activity in cultured HH, P450-Glo Assays; type: in vitro ADME; details: in the presence of the organic compound
T1 construct: endogenous in cells; host or cells: freshly isolated human hepatocytes (HH) in culture
Description: as §1

HH [4] = test: Screen of organic compounds as DMSO substitution: morphology and hepatocyte marker gene expression of recovered HH; type: cell-based, human; details: substitution for DMSO, additional 7 and 14 days culture
Excerpt: Then, total cell lysates were subjected to immunoblotting analysis for the detection of indicated molecules. NT; non treatment.
Then, HH was subjected to immunofluorescent analysis for the detection of MRP2 (Arrowheads), F-actin, DAPI. The bar indicates 25 μm.
In search of the DMSO substitution, we screened numerous organic compounds. The list of chemicals (Table 3) is selected based on the shared characteristics with DMSO, such as but not limited to the molecular size, solubility to the cell culture medium, stability at the standard temperature (melting and boiling temperatures), feasibility in handling (no significant chemical hazardous concern), and the cost. […] With the highest possible concentration, recovered HH (7 days old) were cultured for additional 7 and 14 days with refreshing of the medium at a frequency of every 3-4 days. On day 14 and 21, cells were subjected to the morphological and cell fate assessment along with the functional assessment (FIGS. 7 and 8).

CYP2A9 = CYP2A9 (Homo sapiens, UniProt P11712); details: HH, in the presence of the organic compound
Description: as §1

HH [5] = test: Role of DMSO in the cell fate recovery of freshly isolated HH; type: cell-based, human; details: 7 days
Excerpt: Then, HH were subjected to (A) immunofluorescent analysis for the detection of MRP2 (Arrowheads), (B) immunoblotting and (C) qPCR analysis for the detection of indicated hepatocytes marker molecules at the indicated time points.

HH [6] = test: Ethanol metabolism to acetate by cultured HH (Acetate Colorimetric Assay Kit); type: cell-based; details: 10 mM ethanol, 24 hours, sealing apparatus, compared with human liver
Description: Then, HH were cultured with either DMSO or DMSO2 containing maintenance/application medium in the absence (0 mM) or presence of 10 mM ethanol for 24 hours. The sealing apparatus was applied throughout the course of ethanol treatment. At the end of the ethanol treatment, cell culture medium was harvested followed by the measurement of acetate concentration using Acetate Colorimetric Assay Kit (Biovision). […] The rate of acetate production was normalized by the cell number of the […] in order to assess the comparability of EtOH metabolizing capacity of HH with each given condition to that of the health human liver (right).

ADH = ADH activity (NADH production rate, absorbance at 340 nm) in HH cell homogenate; type: biochemical, human; details: in the presence of the organic compound
Description: Hepatoma cells (Huh7 and HepG2) were used as negative controls. (B) The relative ADH activity of HH were assessed in the absence of organic compounds (NT), as well as in the presence of DMSO or DMSO2 using the same method described in (A).

HH [7] = test: Withdrawal of DMSO from recovered HH: MRP2 immunofluorescence, immunoblotting, qPCR; type: cell-based, human; details: after 7 days recovery, additional 4 days
Excerpt: Then, HH were subjected to (A) immunofluorescent analysis for the detection of MRP2 (Arrowheads), (B) immunoblotting and (C) qPCR analysis for the detection of indicated hepatocytes marker molecules. The bar indicates 25 μm.

CYP2E1 [8] = type: cell-based; details: human, 7 days
Description: FIG. 9 show the impact of DMSO on the inducibility of CYP genes. Freshly isolated HHs were cultured for 7 days with HH recovery media (dHCGM) followed by the maintenance/application medium containing DMSO or DMSO2 for another 7 days in the presence of indicated concentration of CYP3A4 inducers ([…] and carbamazepine) (left) and CYP2El inducers (ethanol and isoniazid) (right). Then, and total RNA and cell lysates were subjected to immunoblotting analysis (left) and qPCR analysis (right) to determine the inducibility of indicated molecules.

HH [9] = details: HH cultured with DMSO2-containing medium, only when tight-sealing apparatus is applied
Description: Due to the high volatility of ethanol, it evaporates rapidly at a much higher rate that the rate of hepatocytes metabolizes.

T1 sequence (P08684 whole entry): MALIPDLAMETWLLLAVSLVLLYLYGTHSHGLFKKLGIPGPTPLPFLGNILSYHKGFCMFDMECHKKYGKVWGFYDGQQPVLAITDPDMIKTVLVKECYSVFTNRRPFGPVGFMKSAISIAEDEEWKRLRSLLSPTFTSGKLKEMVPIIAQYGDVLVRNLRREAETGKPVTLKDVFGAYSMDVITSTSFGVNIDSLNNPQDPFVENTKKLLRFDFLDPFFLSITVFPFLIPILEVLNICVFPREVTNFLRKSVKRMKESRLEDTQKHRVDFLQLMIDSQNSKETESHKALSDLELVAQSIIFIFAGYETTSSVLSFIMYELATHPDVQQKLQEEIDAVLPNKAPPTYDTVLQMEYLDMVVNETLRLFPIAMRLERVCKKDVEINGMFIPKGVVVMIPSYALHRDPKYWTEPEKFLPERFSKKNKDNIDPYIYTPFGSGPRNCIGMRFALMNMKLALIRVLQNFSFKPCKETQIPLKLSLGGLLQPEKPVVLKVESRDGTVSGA
Chain of CYP2E1 (Homo sapiens, UniProt P05181) (P05181 whole entry): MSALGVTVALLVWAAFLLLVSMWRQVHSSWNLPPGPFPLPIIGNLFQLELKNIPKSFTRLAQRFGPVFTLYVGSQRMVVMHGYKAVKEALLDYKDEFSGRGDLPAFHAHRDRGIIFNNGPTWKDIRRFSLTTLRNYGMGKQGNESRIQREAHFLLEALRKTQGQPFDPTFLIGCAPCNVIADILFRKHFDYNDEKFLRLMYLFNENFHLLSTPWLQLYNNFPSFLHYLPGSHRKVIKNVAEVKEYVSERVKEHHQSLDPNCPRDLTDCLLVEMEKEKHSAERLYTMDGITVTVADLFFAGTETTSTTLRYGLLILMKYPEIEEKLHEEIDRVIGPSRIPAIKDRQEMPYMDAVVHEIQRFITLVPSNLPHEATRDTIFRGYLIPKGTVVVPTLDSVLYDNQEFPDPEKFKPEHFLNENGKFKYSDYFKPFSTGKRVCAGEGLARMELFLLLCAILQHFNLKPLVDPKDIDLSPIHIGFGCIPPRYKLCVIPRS
Chain of CYP2A9 (P11712 whole entry): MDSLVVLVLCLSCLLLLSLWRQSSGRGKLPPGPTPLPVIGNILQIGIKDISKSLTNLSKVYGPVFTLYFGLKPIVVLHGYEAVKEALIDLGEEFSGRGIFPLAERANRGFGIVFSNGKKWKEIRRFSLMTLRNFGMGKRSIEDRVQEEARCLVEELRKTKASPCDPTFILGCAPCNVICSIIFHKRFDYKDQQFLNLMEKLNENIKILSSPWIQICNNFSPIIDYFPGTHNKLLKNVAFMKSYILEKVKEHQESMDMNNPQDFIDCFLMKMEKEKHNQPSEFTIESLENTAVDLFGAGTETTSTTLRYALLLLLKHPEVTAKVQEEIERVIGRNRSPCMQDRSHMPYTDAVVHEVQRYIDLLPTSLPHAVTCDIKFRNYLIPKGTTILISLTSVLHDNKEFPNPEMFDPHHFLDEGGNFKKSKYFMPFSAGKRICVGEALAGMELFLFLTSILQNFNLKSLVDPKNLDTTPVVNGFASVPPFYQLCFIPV

SMILES | effect on metabolic activity of CYP2E1 / CYP2E1 pathway (CYP2E1 [2]) | effect on metabolic activity of CYP3A4 (CYP3A4 [3]) | maintenance of morphology and marker genes expression of recovered HH (HH [4]) | effect on ADH activity / ADH pathway (ADH) | CYP2E1 induction by inducer (CYP2E1 [8]) | also measured
NC(=O)N1c2ccccc2C=Cc2ccccc21 [Carbamazepine] | – | – | – | – | – | CYP3A4 induction by inducer (CYP3A4 [1]): CYP3A4 induction in a dose dependent manner
CS(C)(=O)=O [DMSO2, dimethyl sulfone] | substantially less than that of DMSO-containing medium | substantially less than that of DMSO-containing medium | capable of maintaining the morphology and the marker genes expression at a level comparable to that of DMSO-containing medium | – | – | –
C[S+](C)[O-] [DMSO, dimethyl sulfoxide] | reciprocal changes were also seen in CYP2E1 | potently prohibits | – | inhibition of ADH activity | – | effect on CYP2A9 activity (CYP2A9): inhibition of DMPK enzymes; recovery of HH from cell injury and stress when cultured without DMSO during Phase 1 (HH [5]): would not promote the recovery; ethanol metabolism by HH (acetate production) (HH [6]): inhibition of ethanol metabolism to the production of acetate; effect of withdrawal of DMSO on hepatocytic function and morphology (HH [7]): rapid deterioration of the hepatocytic function and morphology
CCO [Ethanol] | – | – | – | – | lack of CYP2E1 induction | lipid droplet accumulation in HH (HH [9]): accumulation of lipid droplet (LD)
NNC(=O)c1ccncc1 [Isoniazid] | – | – | – | – | lack of CYP2E1 induction | –
[O-][S+]1CCCC1 [TMSO, Tetramethylene sulfoxide] | – | – | capable of maintaining the morphology and the marker genes expression at a level comparable to that of DMSO-containing medium | inhibition of alcohol metabolism enzymes | – | –
